Laboratory results as given in patent publication US20080275105A1, “Selective Muscle Relaxant and Pharmaceutical Compositions” (UNIVERSIDADE FEDERAL DO RIO DE JANEIROUFRJ, priority 2004, published 2008).

Tests used:
[1] = tested on: rat aorta rings with no endothelium; assay: KCl-induced contracture in aorta rings without endothelium; assay type: cell-based; details: KCl 40 mM; for IC50: Rattus norvegicus, without endothelium, six experiments, read-out: CI50 (μM) Average ± SEM
Protocol: (§1) Once the experiments have been carried out, the findings were subject to statistical analyses being expressed in average ±SEM as a percentage of the control value, and graphs were drawn up using the Sigma Plot 5.0 program to represent the data obtained. For the statistical analysis of the effects on the different muscle tissues, the difference was assessed among the concentrations of the same derivative, using the “t” Student test. In order to ascertain the difference among the derivatives, the one-way ANOVA test was used. The differences were considered as significant for p<0.05. The Cl50 was expressed as an average ±SEM of the values obtained for each experiment through non-linear regression based on the y=yo+ae^−bx equation.
(§2) Male Wistar rats weighing between 240-280 grams were sacrificed through dislocation of the cervical column under anesthesia using ethyl ether. The aorta artery was removed and transferred to a Petri dish containing modified Tyrode's solution whose composition is described in Table 3 below, where the vessel was cleaned and the connective tissue was removed. According to the scheduled Experiment Protocol, the vascular endothelium was removed mechanically with the assistance of a polyethylene rod. The artery was divided into rings with a width of 2-3 mm. Two hooks were placed in the wall of the vessel in order to record the tension generated by the muscle in a transversal direction. To do so, one of the hooks was tied to a fixed point in the chamber and the other to a power transducer (FT 03) for recording the isometric tension. The tension generated by the muscle was transformed into a digitized electric signal (Digidata 1322A) and stored in a computer for subsequent analysis using the Axoscope 8.0 program (Axon Instruments, Inc). The chamber was filled with Krebs solution, oxygenated and kept at a temperature of 37° C.
After stabilizing the preparation, approximately 120 minutes, the Experiment Protocol began. Initially, in order to identify the presence or absence of the vascular endothelium, the preparation was exposed to phenylephrine (10 μM) and when the contracture in response to this substance was stabilized, acetylcholine (10 μM) was added to the nutrient solution. Relaxation of over 80% in response to the acetylcholine indicated the full integrity of the endothelium and relaxation of less than 10% indicated the absence of endothelium. The tissues in which the relaxation intensity fell between >10% and <80% were discarded. […] […] For the purpose of comparing the potency of some of the L294 analogs, the Cl50 was determined for each experiment using the y=yo+ae^−bx equation and their mean was used for the statistical analysis.

[2] = tested on: rat aorta rings with preserved endothelium; assay: KCl-induced contracture in aorta rings with preserved endothelium; assay type: cell-based; details: KCl 40 mM; for amplitude of the KCl contracture, with endothelium: 200 μM stated for L790; for IC50: Rattus norvegicus, with endothelium, six experiments, read-out: CI50 (μM) Average ± SEM
Protocol: as §1, §2
(§3) After stabilizing the preparation, approximately 120 minutes, the Experiment Protocol began. Initially, in order to identify the presence or absence of the vascular endothelium, the preparation was exposed to phenylephrine (10 μM) and when the contracture in response to this substance was stabilized, acetylcholine (10 μM) was added to the nutrient solution. Relaxation of over 80% in response to the acetylcholine indicated the full integrity of the endothelium and relaxation of less than 10% indicated the absence of endothelium. The tissues in which the relaxation intensity fell between >10% and <80% were discarded. In order to investigate the vasodilator effect of the different L294 analogs, they were added to the experiment chambers in rising concentration after the contracture stabilization of the vessel induced by phenylephrine. The tension registered after treatment with each of the L294 analog concentrations was normalized as a function of the amplitude of the contracture triggered by phenylephrine. For the purpose of comparing the potency of some of the L294 analogs, the Cl50 was determined for each experiment using the y=yo+ae^−bx equation and their mean was used for the statistical analysis.
The effects of the L294 analogs were investigated in rat aorta rings with preserved endothelium whose contracture was induced by increasing the extra-cellular concentration of KCl to 40 mM. Of the seven L294 analogs, this test was carried out only with the L785, L786, L789 and L790, in this group of experiments.

soleus (SOL) muscle = assay: Electrically induced twitch amplitude in slow-fiber skeletal muscle (SOL); assay type: cell-based, mice; details: for SOL twitch amplitude 30 min-Washing (% of the control): 30 min after washing
Protocol: Male mice weighing 22-28 g were sacrificed through cervical dislocation and the extensor digitorium longus (EDL) and soleus (SOL) muscles were dissected in a Ringer-Krebs solution, whose composition is given in Table 9, at room temperature. The muscles were placed in vertical chambers with a capacity of 10 ml, and were fixed by their ends to the stimulation electrode fixation rod and a power transducer (Grass FT03) for registering muscle twitches. The chamber solution was bubbled continuously with a carbogenic mixture (95% O2/5% CO2) and kept at a temperature of 37° C. The muscles were stimulated electrically through a stimulator (Grass S88) at a frequency of 0.2 Hz, at 37° C. After the stabilization of the muscle twitches (±30 minutes) a control record was taken in the absence of the drug, and subsequently rising concentrations (from 10 μM to 200 μM) of the L294 derivatives were added every ten minutes, diluted in DMSO. […] The signals recorded by the transducer were amplified (Cyberamp) and the isometric tension was digitized (Digidata 1322A) and stored on a computer. The screening and analysis of the experiment was handled through the use of the Axoscope 8.0 program. (Zapata-Sudo, 2003).
A measurement of the electrically-induced twitch amplitude was selected to assist the effects of the L294 analogs on the skeletal muscle inotropism. One muscle consisting of fast fibers (extensor digitorium longus-EDL) and the other of slow fibers (soleus-SOL) taken from mice were selected for this purpose. Differences in the timing of the twitches between the fast and slow muscles are shown at the faster recording speed. […] Washing the preparation with Krebs solution caused a partial reversion of the effects induced by the L786.

[3] = tested on: rat aorta rings with the vascular endothelium preserved; assay: Phenylephrine-induced contracture in aorta rings with preserved endothelium; assay type: cell-based; details: phenylephrine 10 μM; for IC50: Rattus norvegicus, with endothelium, six experiments, read-out: CI50 (μM) Average ± SEM
Protocol: as §1, §2, §3

| Compound | reversal of the contracture caused by K+, without endothelium ([1]; highest concentration 200 μM, result in words) | IC50 [1] | amplitude of the KCl contracture, with endothelium [2] | IC50 [2] | SOL twitch amplitude 200 μM (% of the control) (soleus (SOL) muscle) | SOL twitch amplitude 30 min-Washing (% of the control) (soleus (SOL) muscle) | IC50 [3] | effect on SOL muscle twitches (soleus (SOL) muscle; 50 μM, result in words) | maximum inhibition levels of phenylephrine contracture, with endothelium [3] |
| --- | --- | --- | --- | --- | --- | --- | --- | --- | --- |
| CN(/N=C/c1cccs1)C(=O)c1ccc2c(c1)OCO2 [L785, 1,3-Benzodioxol-5-carboxylic acid, N-methyl-N′-[1-thiophene-2-yl-meth-(E)-ylidene]-hydrazide] | unable to completely reverse the contracture | 40.5 ± 9.5 µM | 8.1±3.8 % of the control | 34.1 ± 6.3 µM | 28.4±6.6 % of the control | 37.9 ± 9.6 % of the control | 10.2 ± 0.5 µM |  |  |
| O=C(c1ccc2c(c1)OCO2)N(Cc1ccccc1)/N=C/c1cccs1 [L786, 1,3-Benzodioxol-5-carboxylic acid, N-benzyl-N′-[1-thiophene-2-yl-meth-(E)-ylidene]-hydrazide] |  | 151 ± 7.6 µM | 51.1±2.8 % of the control | 127 ± 13.7 µM | 61.9±5.5 % of the control | 77.0 ± 10.3 % of the control | 134 ± 31 µM | reduction in the amplitude and an extension in the duration of the muscle twitches | 34.5±7.6% |
